{"source": "patent US20170129932A1", "about": "“METHOD FOR PREPARING RECOMBINANT GLYCOPROTEIN HAVING HIGH SIALIC ACID CONTENT, THROUGH GLYCOSPHINGOLIPID SYNTHESIS CYCLE CONTROL” (KOREA ADVANCED INSTITUTE OF SCIENCE AND TECHNOLOGY, priority 2014, published 2017)", "key": {"EC2-1H9 cell line [1]": {"tested_on": "EC2-1H9 cell line", "settings": "WGA lectin blotting, EC2-1H9 cells, 1 μM EtDO-P4, FIGS. 1B and 1C", "procedure": "Particularly, in order to treat EtDO-P4, the cells (5×10^6) were cultured in 100-mm plates containing MEM-α supplemented with 10% dFBS for 24 hours. The cells were washed twice with serum-free MEM-α. Then, the cells were added with 1 μM EtDO-P4/MEM-α, followed by further culture for 48 hours."}, "EC2-1H9 cell line [2]": {"tested_on": "EC2-1H9 cell line", "test": "Glycosphingolipid (GSL) extraction and TLC in EC2-1H9 cells", "type": "cell-based, Chinese hamster", "settings": "1 μM EtDO-P4, 48 hours, FIG. 1A", "method": "Glycosphingolipid (GSL) was sonicated for 30 minutes, followed by extraction using chloroform/methanol (C/M; 2:1, v/v) and isopropanol/hexane/water (IPA/H/W; 55:25:20 v/v/v). The GSL extract was dissolved in 0.1 M NaOH/MeOH, followed by culture for 2 hours at 40 °C. The extract was neutralized with 1 N HCl, to which hexane was added. The mixture stood for 5 minutes. The lower layer was evaporated in the N2 atmosphere, and the remaining part was dissolved in distilled water. The mixture was applied to […] (Varian, Palo Alto, Calif.). After washed with distilled water, total GSL was extracted with C/M, followed by evaporation. The residue dissolved in C/M was spotted on TLC plate (Silica Gel 60 F-254, Merck), followed by development in C/M/0.2% CaCl2 (55:40:10, v/v/v). The plate was then stained with 2% orcinol in 2 M H2SO4 by spraying."}}}
{"smiles": "CCCCCCCCCCCCCCCC(=O)N[C@H](CN1CCCC1)[C@H](O)c1ccc2c(c1)OCCO2", "note": "[EtDO-P4, D-threo-1-(3′,4′-ethylenedioxy)-phenyl-2-palmitoylamino-3-pyrrolidino-1-propanol]", "values": [{"measurement": "increase of sialic acid content of purified rhEpo", "setting": "EC2-1H9 cell line [1]", "value": "up to 22%"}, {"measurement": "major GSLs, GM1, GM2, and GM3", "setting": "EC2-1H9 cell line [2]", "value": "reduced completely"}]}
